Source: article PMC4621027, “Hydroxyethylamine Based Phthalimides as New Class of Plasmepsin Hits: Design, Synthesis and Antimalarial Evaluation” (PLoS ONE, 2015)
“Also recorded” adds a separate entry of the source.

Columns and labels:
plasmepsin 2 = target: T1, plasmepsin 2 (Plasmodium falciparum, UniProt P46925); test: Inhibition of plasmepsin 2, chromogenic substrate cleavage assay; type: biochemical; details: tested at 10 to 50 μM
T1 construct: preincubated at the assay pH for 3 minutes to allow conversion from the proenzyme to the mature enzyme form; made in house
Procedure: (§1) Synthetic compounds were dissolved in DMSO to make stock solutions at concentrations around 100 μM. Dilutions from these stocks were made to obtain solutions to use for studying inhibition of the plasmepsins 2 and 4 from P. falciparum. Assays of enzymatic activity were typically done using 50 micromolar substrate and 50 nanomolar enzyme at pH 4.5. The protein samples were preincubated at the assay pH for 3 minutes to allow conversion from the proenzyme to the mature enzyme form, then immediately mixed with inhibitor solutions and incubated for a further 5 minutes to permit the enzyme-inhibitor complex to form. Following this, the samples were mixed with samples of the substrate to yield a 50 μM substrate concentration in the final assay solution and immediately placed in a recording spectrophotometer to follow the reaction. The cleavage of the chromogenic substrate yields a shift in absorbance that can be quantified by the decrease in absorbance at 300 nm. Compounds were mixed with the enzymes at concentrations ranging from 10 to 50 μM range and the effect on enzyme activity studied in duplicate assays.
(§2) A second inhibitor concentration was chosen that would yield approximately 30–35% inhibition and a third inhibitor concentration was chosen to yield approximately 65–70% inhibition. The three resulting curves of initial velocity versus substrate concentration were fit simultaneously to the competitive inhibition scheme; this yields values of Vmax, Km, and Ki.
(§3) Plasmepsins, a family of aspartic proteases of malaria parasite, are known to participate in a wide variety of cellular processes essential for parasite survival. […] Similarly, plasmepsin 4 from P. falciparum can be prepared and activated. Catalytic activity of the plasmepsins can be studied by following the change in absorbance at 300 nm as cleavage occur between a Phe and a nitroPhe in the synthetic substrate, Lys-Pro-Ile-Glu-Phe-NO2Phe-Arg-Leu. The compounds listed in Tables 1, 2 and 3 were assayed for inhibition by preincubating with differnt concentrations of the compound with equal aliquots of either plasmepsin 2 or 4 followed by mixing with the assay substrate.

plasmepsin 4 = target: T2, plasmepsin 4 (Plasmodium falciparum, UniProt Q8IM16); test: Inhibition of plasmepsin 4, chromogenic substrate cleavage assay; type: biochemical; details: tested at 10 to 50 μM
T2 construct: preincubated at the assay pH for 3 minutes to allow conversion from the proenzyme to the mature enzyme form; made in house
Procedure: as §1, §2, §3

P. falciparum 3D7 = test: SYBR green I-based fluorescence parasite growth assay, CQ sensitive strain; type: cell-based, Plasmodium falciparum; details: Plasmodium falciparum; CQ sensitive strain 3D7; 48 h incubation; read-out: IC50 values ± SE, growth of P. falciparum (3D7)
Procedure: (§4) For compound screening, SYBR green I-based fluorescence assay was setup as described in literature. Sorbitol synchronized parasites were incubated under normal culture conditions at 2% hematocrit and 1% parasitemia in the absence or presence of increasing concentrations of the compounds. Chloroquine (CQ) was used as positive control, while 0.4% DMSO was used as the negative control.
(§5) We have studied the antimalarial effect of all the listed molecules in […] culture conditions in order to identify a putative lead structure for pharmacological applications.

[1] = tested on: CQ resistant strain (7GB) of P. falciparum; test: Antiplasmodial activity against CQ resistant strain; type: cell-based; details: Plasmodium falciparum; values in brackets; 48 h incubation; read-out: IC50 values ± SE, CQ resistant strain (7GB) (converted)
Procedure: as §4, §5

MCF-7 cell line = test: MTT-colorimetric cytotoxicity assay; type: cell-based; details: 100, 25 and 6.25 μg mL^-1
Procedure: Phthalimides were serially diluted in DMSO in a final concentration of 100, 25 and 6.25 μg mL^-1 and evaluated for their % cytotoxicity by using MTT-colorimetric assay on MCF-7 cell line. Cell lines were maintained in RPMI-1640 (Hi-Media, Mumbai) medium supplemented with heat inactivated FCS (10% v/v) and 100 U/mL of streptomycin and were cultured in a humidified 5% CO2 atmosphere at 37°C. 100 μL (~2×10^5) of cells were seeded into wells (per well) on a 96-well plate (Nunc, Maxi Sorp) and incubated for 16 h for adherence. After 16 h, media was aspirated from the wells and the cells were washed with RPMI-1640 without FCS. 75 μL of each compound and control was added to separate wells containing cell lines and incubated at 37°C in humidified 5% CO2 atmosphere for 4 h. After 4 h, media containing the compounds was replaced with 200 μL of normal RPMI-1640 and cells were further incubated for 48 h under same conditions. After 48 h media was replaced by 200 μL of MTT (3-(4, 5-dimethylthiazol-2-yl)-2, 5-diphenyltetrazolium bromide, 0.5 mg/mL of RPMI-1640) and further incubated for 2 h. The formazan crystals were formed and suspended in 100 μL iso-propanol containing 0.06 M HCl and 0.5% SDS. Aliquots were drawn from each well and colour intensity was measured spectrophotometrically in an ELISA plate reader (Biotek, ELx800) at 540 nm. Untreated cells were taken as control with 100% viability and cells without addition of MTT were used as blank. The relative cell viability (%) compared to control cells was calculated by [abs] sample/ [abs] control × 100.

human erythrocytes = test: In vitro hemolytic activity; type: cell-based; details: 3.125 to 100 μg/mL, 37°C, 1 h
Procedure: In vitro hemolytic activity of all synthesized compounds was performed as per reported protocol with slight modifications. In brief, human erythrocytes were collected from Rotary Blood Bank (New Delhi, India) and suspended in phosphate buffer saline (PBS). The suspension (2% hemotocrit) was incubated with different concentrations (3.125 to 100 μg/mL) of the entire compound series at 37°C for 1 h. After 1 h, erythrocytes were pelleted at 3000 g for 10 min (Remi, R-8C/BL) at 4°C. The supernatant was collected and OD450 was determined spectrophotometrically (Biotek, ELx800 UV spectrophotometer) using PBS as a negative control and Triton X-100 for completely lysing the cells. The percent hemolysis was calculated using the following formula: Percent hemolysis = […]. The percent hemolysis was plotted against concentration of compounds for determining the dose cytotoxic to erythrocytes.

[2] = tested on: P. falciparum developmental stages (asexual); test: Effect on P. falciparum developmental stages, Giemsa-stained smears; type: cell-based, Plasmodium falciparum; details: 5 μM
Procedure: Further, in order to assess the effect of potent molecule 5e on the parasite developmental stages (asexual), we treated tightly synchronized ring-stage parasite cultures with 5e at 5 μM concentration and counted the parasites at different developmental stages (rings, trophozoites and schizonts) in Giemsa-stained smears at three time points (36, 44, and 52 h after treatment). The control (untreated) parasite progressed through the first cell cycle (0–48 h), increased in size and density, developed into trophozoites and schizonts and subsequently formed viable merozoites. These merozoites were able to invade fresh RBCs and form new ring-stage parasites. (Fig 4).

T2 sequence (Q8IM16 122-449): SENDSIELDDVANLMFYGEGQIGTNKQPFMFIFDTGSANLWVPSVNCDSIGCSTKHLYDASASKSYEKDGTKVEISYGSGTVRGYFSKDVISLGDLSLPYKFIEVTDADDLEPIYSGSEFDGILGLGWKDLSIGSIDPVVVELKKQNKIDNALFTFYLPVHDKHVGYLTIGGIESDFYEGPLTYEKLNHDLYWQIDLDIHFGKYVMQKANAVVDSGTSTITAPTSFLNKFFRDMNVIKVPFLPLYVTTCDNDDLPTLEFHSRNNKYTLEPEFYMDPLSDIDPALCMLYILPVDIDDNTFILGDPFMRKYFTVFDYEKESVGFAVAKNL
T1 sequence (P46925 125-453): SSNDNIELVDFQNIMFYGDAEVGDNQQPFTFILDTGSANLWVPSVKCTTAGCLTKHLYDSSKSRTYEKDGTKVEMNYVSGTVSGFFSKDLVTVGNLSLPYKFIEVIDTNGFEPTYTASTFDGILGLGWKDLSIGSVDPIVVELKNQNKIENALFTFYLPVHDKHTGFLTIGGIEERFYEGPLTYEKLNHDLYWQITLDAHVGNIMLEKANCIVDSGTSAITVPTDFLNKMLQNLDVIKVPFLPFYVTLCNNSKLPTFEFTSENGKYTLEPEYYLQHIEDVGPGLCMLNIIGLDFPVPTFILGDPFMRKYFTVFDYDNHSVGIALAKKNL

inhibition of plasmepsin 2 (in words) (plasmepsin 2): did not inhibit
inhibition of plasmepsin 4 (in words) (plasmepsin 4): did not inhibit
IC50 (P. falciparum 3D7): 1.16 ± 0.04 µM
IC50 [1]: 2.99 µM
SMILES: CC(C)(C)OC(=O)N[C@H](Cc1ccccc1)[C@@H](O)CN1CCC(N2CCCCC2)CC1 [Compound 5e]
cytotoxic effect on MCF7 cell line (in words) (MCF-7 cell line): low cytotoxic effect; also recorded: less toxic
hemolysis of human erythrocytes (in words) (human erythrocytes): lower hemolysis
total parasitemia compared with the control set ([2]; at 52 h): lower total parasitemia
effect on parasite developmental stages ([2]; synchronized ring-stage cultures, 36, 44 and 52 h after treatment): developmental arrest in the transition from early to late schizont
